Marks after values point to notes of the source that are not given here. No end group written: not given here.
How the values were obtained:
[1] = test system: Masugi nephritis rat model; experiment: Masugi nephritis rat model; format: in vivo, Sprague Dawley (SD) rats
From the text: The anti-serum was then exuded and isolated. Whole blood was collected from 15 healthy SD rats. […] Treatment started on the day of induction. […] Adequate drinking water was supplied.

[2] = test system: anti-SRBC antibody; experiment: Sheep Red Blood Cell (SRBC) hemolysis test, anti-SRBC antibody formation; format: in vivo, BALB/c mice; details: SRBC on day 12, IFN-γ and IL-2 groups 3×10^5 IU/kg/day, X ± SD
Description: Sheep red blood cells (SRBC) were prepared by collecting blood from cervical vein and put into a sterile flask with glass beads. The flask was shaken for 3 minutes and the blood then mixed with Alsever solution (glucose 2.05 g, NaCl 0.4 g, […] 0.8 g, adjust to 100 ml with distilled water) and stored at 4° C. Immediately before use, samples were centrifuged at 130 g, 5 minutes to collect the SRBC. The cells were washed two times by re-suspension and centrifugation in normal saline. Then the cell pellet was collected by centrifugation at 180 g for 10 minutes and re-suspended in saline to make the final working SRBC suspension, 2% (v/v).
Complement was prepared by adding 10 volumes of fresh Cavy serum into one volume centrifuge packed SRBC, and then gently shaking for 30 minutes at 4° C. The SRBC was removed by centrifugation at 200 g for 10 minutes. 10 volumes of normal saline were added to obtain the working complement solution.
The test substances were administered as described in section 1.1, plus intraperitoneal injection 0.2 ml SRBC per mouse on day 12. On the day after the last test substance administration (day 16), blood was collected from the eye canthus and left at room temperature for one hour for serum exudation. After centrifugation at 200 g for 10 minutes, the serum was diluted by 500 times with normal saline.
To 1 ml diluted mouse serum of each mouse, 0.5 ml SRBC suspension was added. Ice cold. Then 1 ml working complement solution was added and incubated at 37° C. water bath for 10 minutes. Reactions were terminated by ice cold. Samples were then centrifuged at 200 g for 10 minutes to obtain the supernatant.
To 1 ml of this supernatant, 3 ml Drabkin solution was added and left at room temperature for 10 minutes. OD540nm was obtained.
Reference OD540nm was obtained by mixing 0.25 ml SRBC suspension with Drabkin solution to 4 ml and placed at room temperature for 10 minutes before OD540nm was taken. Sample serum index=(OD540nm of test sample[…]reference OD540nm)×500 3. The Effect of Peptides on the Phagocytosis Function of Mononuclear Phagocyte and the Weight of Immune Organ^[8,9].

[3] = test system: mononuclear phagocyte; experiment: carbon particle clearance test, phagocytotic activity of mononuclear phagocyte; format: in vivo, BALB/c mice; design: key: α = (cube root of K)×(body weight ÷ liver+spleen weight); details: peptide 5 μg/kg/day i.p. 15 days; IFN-γ and IL-2 groups 3×10^5 IU/kg/day; X ± SD
Description: On the next day after the last test substance administration (day 16), the mice were injected with […] body weight India ink (5 times dilution with normal saline) from the tail vein.
One minute and five minutes after Indian ink injection, 20 μl blood was obtained from the eye can thus with a heparinized tubing. The blood was mixed with 2 ml 0.1% w/v Na2CO3 and then OD680nm obtained. The outline clear index K was calculated by the following formula: K=(lgA1−lgA2)÷(t2−t1) Key: A1: OD680nm at first minute A2: OD680nm at fifth minute t2: 5 minutes […]
(§1) One day after the last test substance administration (day 16), the liver, spleen, and thymus gland were separated and blotted dry with filter paper and weighed. The phagocytosis index α was calculated as below: α=(^3√K)(W÷WLS) key: W: body weight WLS: weight of liver plus spleen Thymus gland index(%)=(thymus weight/body weight)×100% Spleen index(%)=(spleen weight/body weight)×100%

[4] = immunity organ weight test (thymus gland index, spleen index); format: in vivo, BALB/c mice; details: IFN-γ and IL-2 groups 3×10^5 IU/kg/day, X ± SD
Description: The above substances were all dissolved in 0.5 ml saline and injected intraperitoneal (i.p.) for 15 continuous days, once per day.
as §1

[5] = after three weeks of treatment, peptides 50 μg/kg/day i.p., hydrocortisone 3.3 mg/kg/day i.p.
[6] = peptide 0.5 μg/kg/day i.p. 15 days

Q: Which Serum creatinine level [1, 5] does the source give for C[C@]12CCC(=O)C=C1CC[C@@H]1[C@@H]2[C@@H](O)C[C@@]2(C)[C@H]1CC[C@]2(O)C(=O)CO [hydrocortisone, Hydrocortisone, reference compound] here?
A: 239 ± 107 µmol/L

Q: What about the “growth rate of treated nephritis rats” value ([1]; peptides 50 μg/kg/day i.p., hydrocortisone 3.3 mg/kg/day i.p.) of the same molecule?
A: slower growth rate than normal

Q: Which “anti-SRBC antibody formation (sample serum index)” value [2, 6] does the source give for VGMGEKDSY [CMS018] here?
A: 3 ± 1* Unit

Q: What about the “anti-SRBC antibody formation (sample serum index)” value ([2]; peptide 500 μg/kg/day i.p. 15 days) of the same molecule?
A: 66 ± 16* Unit

Q: And the phagocytotic index [3]?
A: 6.7 ± 1.2

Q: And the “weight of thymus gland (thymus gland index)” value (shortened to “weight … (thymus gland index)”) [4, 6]?
A: 0.20 ± 0.03 %

Q: What about the “weight … (thymus gland index)” value ([4]; peptide 5 μg/kg/day i.p. 15 days) of the same molecule?
A: 0.24 ± 0.04*^@^ %

Q: What about the “weight … (thymus gland index)” value ([4]; peptide 50 μg/kg/day i.p. 15 days) of the same molecule?
A: 0.23 ± 0.02*^@^ %

Q: What about the urine protein level ([1]; Week 1, 24 hours urine, peptides 50 μg/kg/day i.p., hydrocortisone 3.3 mg/kg/day i.p.) of the same molecule?
A: 7.0 ± 3.7 mg

Q: What about the urine protein level ([1]; Week 2, 24 hours urine, peptides 50 μg/kg/day i.p., hydrocortisone 3.3 mg/kg/day i.p. (halved after first week)) of the same molecule?
A: 5.5 ± 7.9 mg

Q: What about the Serum creatinine level [1, 5] of the same molecule?
A: 67 ± 1 µmol/L

Q: What about the spleen index [1, 5] of the same molecule?
A: 3.3 ± 0.8 ×10^−3

Q: And the “renal pathological microscopic examination” value ([1]; peptides 50 μg/kg/day i.p. 3 weeks, 6 heaviest kidneys per group)?
A: all pathological parameters of all rats were normal
